Measurements: US20160084855A1, “Compositions and Methods for Modulation and Detection of Immune and Inflammatory Responses” (UNIVERSITY OF CONNECTICUT, priority 2013, published 2016)

Key:
[1] = Recovery of 3-OH isoC17:0 fatty acid from brains of mice with EAE (GC-MS); assay type: in vivo, mouse; conditions: mice that received PE DHC and had a disease score greater than 3.0, versus PBS or EtOH controls
Description: Mice treated with PBS, EtOH or with 25 ng, 250 ng, or 2.5 μg PE DHC were sacrificed after day 20 post-EAE immunization. The brains were removed and extracted for phospholipids according to the method of Bligh and Dyer as previously described in Nichols “Distribution of 3-hydroxy iC17:0 in subgingival plaque and gingival tissue samples: Relationship to adult periodontitis” Infect. Immun. 62:3753-3760 (1994). Lipid extracts were dissolved in hexane isopropanol:water (6:8:0.75, v/v/v/) and three 0.5 mg aliquots were dispensed into glass tubes supplemented with 30 ng of isobranched C20:0. […] Lipids were treated to form pentofluorobenzyl ester, trimethylsilyl ether derivatives and analyzed by negative ion chemical ionization GC-MS, as described in Nichols (1994). Fatty acid recovery was quantified by selected ion monitoring for characteristic fatty acid negative ions. The data were expressed as picograms of 3-OH isobranched (iso)C17:0 per 0.5 mg of total brain lipid extracted.
The cumulative disease index (CDI) was obtained by summing the daily average disease scores through Day 20. A mean of these daily disease scores (Mean Daily Disease) (+/−SEM) was calculated based on the 20 days of observation. […] Bacterial fatty acid levels in brain lipid extracts for each treatment group were evaluated using least squares linear regression analysis that included calculation of correlation coefficients. […]

[2] = test system: C57BL/6 (WT), TLR2−/−, IL-15−/− and IL-15Rα−/− mice with EAE; test: EAE induced with MOG35-55 in CFA plus pertussis toxin; clinical grading; assay type: in vivo, mouse; conditions: for Mean Day of Onset of EAE / Mean Maximum Severity of EAE / Mean Incidence of disease: PE DHC; for Mean Maximum Severity of EAE: 20-day observation; for MDD (Mean Daily Disease) / CDI (cumulative disease index): PE DHC 250 ng single i.p. Day 0; for MDD (Mean Daily Disease): 20 days; for CDI (cumulative disease index): through Day 20
Description: […]. In addition, mice were injected intraperitoneally (i.p.) on Day 0 with either P. gingivalis lipid or the vehicle control, 70% ethanol (EtOH). EAE was scored as: Grade 1-tail paralysis; Grade 2-weakness of hind limbs with an altered gait; Grade 3-hind limb paralysis; Grade 4-front limb paralysis; Grade 5-death.
For treatment of mice, preweighed lipids were dissolved in 70% ethanol to achieve a final concentration of 125 ng/μl, and sonicated for 2.5 minutes immediately before injection into experimental animals. This preparation was also used for drying lipids onto tissue culture wells. For direct addition to cell cultures, the lipids were dissolved in culture medium at 125 ng/μl and sonicated for 2.5 minutes to produce a liposome preparation for administration to cells in culture.
The cumulative disease index (CDI) was obtained by summing the daily average disease scores through Day 20. A mean of these daily disease scores (Mean Daily Disease) (+/−SEM) was calculated based on the 20 days of observation. The Mean Daily Disease scores were compared using the Wilcoxin Signed Rank tests for two samples. Disease incidence frequencies were compared using Chi square analysis. Values for mean maximum severity of EAE were compared using the Wilcoxin Signed Rank test. Values for mean day of onset of EAE were compared using the Student's t-test. For analysis of spinal cord populations, percentages were compared using Student's t test. Bacterial fatty acid levels in brain lipid extracts for each treatment group were evaluated using least squares linear regression analysis that included calculation of correlation coefficients. For each dose of bacterial lipid administered, linear regression analysis compared the final EAE score with the mean bacterial fatty acid recovered per 0.5 mg of brain lipid extract. The mean bacterial fatty acid levels were calculated from three replicate brain lipid determinations.
EAE was induced in female C57BL/6 (WT) mice and these mice were also injected i.p. on Day 0 with either P. gingivalis lipids or the vehicle control, 70% ethanol (EtOH). To most effectively detect effects of P. gingivalis lipids in the development of autoimmunity, less severe EAE was induced by using CFA with […] concentrations of H37RA mycobacteria (500 μg/mouse). […] Component HPLC fractions of the TL were examined individually. […] FIG. 7 illustrates one representative experiment of six similar studies, in which 250 ng of PE DHC was administered to WT mice.
Mice deficient in either IL-15 (IL-15^−/− mice) or the IL-15 receptor α (IL-15Rα^−/− mice) are known to express very few identifiable NKT cells (Kennedy et al. “Reversible defects in natural killer and memory CD8 T cell lineages in interleukin 15-deficient mice,” J. Exp. Med. 191:771-780 (2000); Lodolce et al. “IL-15 receptor maintains lymphoid homeostasis by supporting lymphocyte homing and proliferation” Immunity 9:669-676 (1998). WT mice and either IL-15^−/− or IL-15Rα^−/− mice (both on a C57BL/6 background) were immunized for EAE and given a single i.p. injection of EtOH or PE DHC on Day 0. […] FIGS. 8 and 9 show representative experiments using IL-15^−/− and IL-15Rα^−/− mice.
TLR-2 deficient (TLR2^−/−) mice were immunized with the standard EAE-inducing MOG protocol and administered a single i.p. injection of either EtOH or PE DHC on Day 0.

[3] = IL-15Rα−/− mice that developed EAE
[4] = IL-15−/− mice that developed EAE
[5] = TLR2−/− mice that developed EAE
[6] = Wild Type mice that developed EAE

phosphoethanolamine dihydroceramide [PE DHC]
Brain level of 3-OH isoC17:0 fatty acid [1]: higher levels of 3-OH isoC17:0 fatty acid
Mean Day of Onset of EAE [2, 3]: 13.8 days
Mean Maximum Severity of EAE [2, 3]: 2.9
Mean Incidence of disease ([2]; IL-15Rα−/− mice): 100%
MDD (Mean Daily Disease) ([2]; IL-15Rα−/− mice): 0.9
CDI (cumulative disease index) ([2]; IL-15Rα−/− mice): 18.7
CDI and mean daily disease compared with EtOH-treated mice ([2]; IL-15−/− and IL-15Rα−/− mice): greater than a doubling
Effect on EAE ([2]; IL-15−/− and IL-15Rα−/− mice, single i.p. injection Day 0): significantly enhanced EAE
Mean Day of Onset of EAE [2, 4]: 13.0 days
Mean Maximum Severity of EAE [2, 4]: 3.7
Mean Incidence of disease ([2]; IL-15−/− mice): 90%
MDD (Mean Daily Disease) ([2]; IL-15−/− mice): 1.2
CDI (cumulative disease index) ([2]; IL-15−/− mice): 24.5
Mean Day of Onset of EAE [2, 5]: 14.7 days
Mean Maximum Severity of EAE [2, 5]: 2.9
Mean Incidence of disease ([2]; TLR2−/− mice): 46.6%
MDD (Mean Daily Disease) ([2]; TLR2−/− mice): 0.4
CDI (cumulative disease index) ([2]; TLR2−/− mice): 8.3
Effect on CDI and mean daily disease ([2]; TLR2−/− mice, single i.p. injection Day 0): did not mediate enhancement of CDI or mean daily disease
CDI and mean daily disease compared with EtOH-treated mice ([2]; WT mice, 250 ng, cumulative results of six experiments): essentially a doubling
Effect on EAE disease ([2]; WT mice, 2.5 μg, 250 ng and 25 ng, 250 ng most efficient): led to enhanced disease
Onset of disease compared to EtOH-treated mice ([2]; WT mice, p=0.008): significantly earlier onset of disease
Effect on severity of EAE ([2]; WT mice, single 250 ng i.p. injection on Day 0): consistently enhanced the severity of EAE
Mean Day of Onset of EAE [2, 6]: 12.1 days
Mean Maximum Severity of EAE [2, 6]: 3.6
Mean Incidence of disease ([2]; Wild Type mice): 75%
MDD (Mean Daily Disease) ([2]; Wild Type mice): 1.0
CDI (cumulative disease index) ([2]; Wild Type mice): 19.8
